Entries after “also recorded” stand apart in the source; their conditions may differ.
Assays:
[1] = test system: ABCB1; test: Intracellular drug accumulation in ABCB1-overexpressing KB-C1 cells with or without elacridar (ABCB1 substrate testing), HPLC-QqQ MS; assay type: cell-based; conditions: fold-change of drug accumulation upon ABCB1-inhibition with elacridar, Fig. 4 coding: > 2 fold-control unfavorable, 1–2 intermediate, < 1 favorable
Procedure: We first compared interaction of the investigated drugs with ABCB1 by measuring fluorescent substrate drug accumulation in the parental KB-3-1 (a HeLa cell derivative) cell model and its isogenic ABCB1-overexpressing KB-C1 cell model, as previously published. As a known fluorescent ABCB1 substrate calcein (derived from non-fluorescent calcein AM) was used in the presence of investigated drugs (1 μM and 10 μM) using fluorescence-activated cell sorting (FACS). The ABCB1 inhibitor elacridar was used as positive control. As this approach cannot distinguish competitive (by a substrate) and non-competitive (by a pure inhibitor) ABCB1 inhibition, KB-C1 cells were additionally exposed to the examined drugs with or without elacridar to test the actual impact of ABCB1 activity on the concentration of drug within the cells. In detail, cultivated cells were grown, washed, lysed using 100 μL methanol, centrifuged and stored at − 80 C prior to analysis. […] Finally, 100 μL supernatant were collected and analyzed using the developed HPLC-QqQ MS method (see Supplementary Material).
6. Experiments with ABCB1-overexpressing KBC1 cells
Experiments were conducted to test for a possible inhibition or substrate character of the investigatzed […]
Figure S8 ABCB1 testing. (A) Calcein accumulation assay in KB-3-1 (control) and ABCB1-overexpressing KBC1 cells. Bars depict calcein fluorescence intensity measured by fluorescence activated cell sorting (FACS). Higher bars as compared to calcein in ABCB1-overexpressing cells indicate ABCB1-inhibition. Elacridar served as positive control. (B) Accumulation of drugs upon ABCB1-inhibition with elacridar measured by HPLC-QqQ MS.
(without elacridar inhibition).
(1 picture or pasted object on this page, not shown here)

[2] = CSF drug concentration in pediatric brain tumor patients, Ommaya reservoir samples, HPLC-QqQ MS; assay type: in vivo, human; conditions: for CSF penetrance class: CSF concentration class; for CSF concentration, mean: total drug, steady state; for CSF concentration, mean / detection in CSF samples: oral dosing, pediatric brain tumor patients
Procedure: Samples were obtained from patients treated at the Department of Pediatrics and Adolescent Medicine at the General Hospital of Vienna and the study was approved by the ethics committee of the Medical University of Vienna. Patient characteristics (age, weight, sex) and clinical data (tumor type, medication, radiotherapy, localization, leptomeningeal disease, serum protein levels, and CSF protein levels) were retrieved from patient charts. Clinical and serum parameters were measured within the same treatment cycle, CSF protein levels at the same date and sample collection time point. Samples were collected and snap frozen within routine clinical sampling during intraventricular chemotherapy administration.
We included samples of patients who received oral small molecule inhibitors and concomitant intraventricular therapy. […] As backbone therapy the majority of patients were treated according to the MEMMAT protocol (NCT01356290) with slight modifications in some cases as indicated in Additional file 1: Table S1. Dosing for pediatric patients was adjusted according to the treatment protocols or previous reports as outlined in Table 1. […] In two cases, samples of patients being sequentially treated with different drugs were collected as indicated in Additional file 1: Table S2. […] CSF samples (< 0.5 mL) of pediatric patients were collected using an Ommaya reservoir, immediately snap frozen and afterwards stored at − 80 °C prior to HPLC-MS analysis. Figure 1 gives general information on the workflow of CSF sample collection, sample preparation and HPLC-MS analysis. Detailed information on the analysis method and the working parameters of the HPLC-MS system(s) can be found in the supplementary material available online (Additional file 1: Figures S1 and S2 and Tables S3–4).
In a first step, we determined whether CSF samples from Ommaya reservoirs analyzed with HPLC-QqQ MS or HPLC-IMS-Q-TOF MS allow reliable detection of orally administered drugs and the respective metabolites. For that purpose, special focus was on the improvement of an HPLC-QqQ MS multi-method to quantitate the respective substances in CSF samples. The applied chromatographic gradient as well as the sensitivity of the MS detection were optimized to allow a quantitation of all mentioned analytes within one run and over a broad range of analyte concentration levels (800 ng L^− 1 to 250 μg L^− 1).
Table S2 Sequential therapies of the investigated drugs in the study cohort. The period to the prior drug is indicated in brackets.
Selleckchem (Houston, TX, USA). Standards were originally prepared as a 10 mM DMSO solution, but were further diluted with methanol to obtain stock solutions containing analyte concentrations of 10 mg L-1 and were stored at 4 °C. The internal standard (ISTD) carbamazepine (> 98 %) was obtained from Sigma-Aldrich Handels GmbH (Vienna, Austria) and used as a methanolic stock solution with a concentration of 2 g L-1, which was diluted as needed.
Succinanilic acid (p.a.) was purchased from Sigma-Aldrich Handels GmbH (Vienna, Austria) diluted to a 400 mg L-1 methanolic stock solution and stored at 4 °C.
All used solvents were HPLC grade and were purchased from VWR International GmbH (Darmstadt, […]
Formic acid (≥ 96 %) was purchased from Sigma-Aldrich Handels GmbH (Vienna, Austria).
Water was used in Millipore quality obtained from a Millipore purification system (Molsheim, France).
CSF samples (< 0.5 mL) of pediatric patients receiving cancer therapy drugs were collected using an Ommaya reservoir, and were stored at -80 °C prior to further analysis.

[3] = Calculated free (protein-unbound) drug levels in CSF, law of mass action; assay type: in vivo, human; conditions: law of mass action approach; for fraction unbound: human, CSF, oral, read-out: unbound fraction of the total drug amount measured in CSF
Source text: Directly measuring free drug levels in CSF may be impossible due to low drug concentrations. Besides the experimental quantitation, if feasible, also the law of mass action can be used to predict protein-unbound drug levels. Accordingly, CSF proteins and associated drugs may be considered as center and ligand, forming a complex. Consequently, we applied the corresponding mathematical model to estimate free drug concentration. The derivation is given in further detail in the supplementary material.

[4] = Detection of drug metabolites in patient CSF, HPLC-IMS-Q-TOF MS with in silico metabolite prediction; assay type: in vivo, human
Source text: In a next step, theoretical molecular formulas and related ion masses of the predicted metabolites were transferred into a database and compared to measured high-resolution Q-TOF mass spectra of biological samples. For that purpose, MassHunter Qualitative Workflows B.08.00 software (Agilent Technologies, Santa Clara, California) was used, as it enables (semi)-automated data processing. Within this procedure, theoretical and measured exact ion masses and abundances of isotopologues and molecule-cation adducts were compared. The results of this comparison were then used to evaluate the validity of the identification, which is expressed as a score. This quality measure is important as it reduces the risk of false positives that are likely in complex biological samples, especially when only the accurate mass of a molecule is used. […]
(§1) Metabolite detection and determination of collision cross sections was performed using an IMS-Q-TOF MS within a mass range of 100 – 1700 m/z in QTOF-only and IMS mode respectively. Ionization was again obtained by the means of positive electrospray ionization using 5 L min-1 of nitrogen stream with 300 °C for drying, a capillary voltage of 3.5 kV and a nebulizer pressure of 35 psig. Further parameters included a sheath gas flow of 11 L min-1 at 350 °C and a nozzle voltage of 1 kV. The fragmentor voltage was set to 400 V. Ion mobility experiments were performed with a maximal drift time of 60 ms at a frame rate of 0.9 frames per second resulting in a total of 600 TOF-transients within one frame. Data processing was achieved using IM-MS Browser B.08.00 from Agilent Technologies on the basis of ion

[5] = metabolites detected in CSF; cited from earlier work
[6] = Matched serum sample to prove oral uptake of nintedanib, HPLC-MS; assay type: in vivo, human; conditions: one time point, patient #4
[7] = cited from earlier work
[8] = Collision cross section by HPLC-IMS-Q-TOF MS; assay type: physicochemical
Source text: Data processing was achieved using MassHunter Workstation Software B.05.02 from Agilent […]
for quantitation, including all transitions and corresponding collision energies as well as fragmentor voltages and retention times.
Table S3 Overview of the used QqQ transitions for quantitative and qualitative characterization in Dynamic MRM Mode using 7 V of cell acceleration voltage, 500 ms cycle time and positive polarization within an Agilent 6420 QqQ.
Compound Precursor Ion Product Ion / r.t. / min Fragmentor / Collision […]
as §1

| ABCB1 substrate evaluation [1] | CSF penetrance class [2] | CSF concentration, mean [2] [nM] | fraction unbound [3] | calculated free, unbound CSF concentration, mean [3] [nM] | Compound | metabolite identification in CSF [4] | Active / Inactive (biological activity of metabolite) [5] | also measured |
| --- | --- | --- | --- | --- | --- | --- | --- | --- |
| – | – | – | – | – | Cc1ccc(NC(=O)c2ccc(CN3CCNCC3)cc2)cc1Nc1nccc(-c2cccnc2)n1 [demethylated imatinib] | identified | active | – |
| – | – | – | – | – | CNC(=O)c1cc2cnc(Nc3ccc(N4CCNCC4)cn3)nc2n1C1CCCC1 [demethylated ribociclib] | identified | active | – |
| – | – | – | – | – | O=C(CCCCCCC(=O)Nc1ccccc1)NO[C@@H]1O[C@H](C(=O)O)[C@@H](O)[C@H](O)[C@H]1O [glucuronidated vorinostat] | identified | inactive | – |
| intermediate | – | – | – | – | COC(=O)c1ccc2c(c1)NC(=O)/C2=C(\Nc1ccc(N(C)C(=O)CN2CCN(C)CC2)cc1)c1ccccc1 [nintedanib] | – | – | serum concentration [6]: 30 nM; detection in CSF samples [2]: not detected; also recorded: not identified |
| highly transported by ABCB1 | – | – | – | – | Cc1[nH]c2ccccc2c1CCNCc1ccc(/C=C/C(=O)NO)cc1 [panobinostat] | – | – | panobinostat levels in a published study ([7]; children, higher panobinostat doses): below the detection limit; half-life [7]: 31 h; detection in CSF samples [2]: not detected; also recorded: untraceable |
| most favorable | moderate (moderate (1–10 nM)) | 6.7 | < 0.6 | 3.9 | CNC(=O)c1cc(Oc2ccc(NC(=O)Nc3ccc(Cl)c(C(F)(F)F)c3)c(F)c2)ccn1 [regorafenib] | – | – | protein binding in serum ([7]; serum): 99.5%; CCS value relative to that expected from the MW [8]: significantly lower |
| intermediate | high (high (> 10 nM)) | 44.1 | ~0.99 | 43.5 | CN(C)C(=O)c1cc2cnc(Nc3ccc(N4CCNCC4)cn3)nc2n1C1CCCC1 [ribociclib] | – | – | level detected in CSF of our patient ([2]; pediatric patient, 3.33 mg/kg daily, as quoted in discussion): 43 nM |
| – | – | – | – | – | O=C(O)CCC(=O)Nc1ccccc1 [succinanilic acid] | identified; also recorded: high concentrations | inactive | – |
| most favorable | high (high (> 10 nM)) | 75.4 | ~0.99 | 75.3 | O=C(CCCCCCC(=O)Nc1ccccc1)NO [vorinostat] | – | – | – |

| Compound | ABCB1 substrate evaluation [1] | CSF penetrance class [2] | CSF concentration, mean [2] [nM] | fraction unbound [3] | calculated free, unbound CSF concentration, mean [3] [nM] | metabolite identification in CSF [4] | Active / Inactive (biological activity of metabolite) [5] | also measured |
| --- | --- | --- | --- | --- | --- | --- | --- | --- |
| Cc1nc(Nc2ncc(C(=O)Nc3c(C)cccc3Cl)s2)cc(N2CCN(CCO)CC2)n1 [dasatinib] | highly transported by ABCB1 | moderate (moderate (1–10 nM)) | 1.2 | ~0.99 | 1 | – | – | proportion of CSF samples in which the drug was detected ([2]; CSF samples of pediatric patients): 66% |

Source: paper PMC7268320, “Cerebrospinal fluid penetration of targeted therapeutics in pediatric brain tumor patients” (Acta Neuropathologica Communications, 2020)
